Reference: patent US20200078404A1, “COMBINATION OF A CELL THERAPY AND AN IMMUNOMODULATORY COMPOUND” (Juno Therapeutics, Inc., priority 2017, published 2020)

How the values were obtained:
K562.CD19 target cells [1] = test: Cytolytic function of anti-CD19 CAR-expressing T cells against K562.CD19 target cells; assay type: cell-based, human
Description: K562.CD19 target cells were transduced with NucLight Red to permit their tracking by microscopy. Cytolytic activity was assessed by measuring the loss of viable target cells over a period of five days, as determined by red fluorescent signal (using the IncuCyte® Live Cell Analysis System, Essen Bioscience).

[2] = tested on: anti-CD19 CAR-expressing T cells; test: Surface markers after anti-idiotypic antibody stimulation; assay type: cell-based, human
From the text: CAR-expressing T cells were stained for CD3, CD4, CD8 and the surrogate marker for CAR expression, and also for the following markers: CD25, PD-1, and CD69.

K562.CD19 target cells [3] = test: Serial stimulation with K562.CD19: cytolytic function at day 24; assay type: cell-based, human; details: day 24 after serial stimulation
From the text: (§1) Every 3-4 days (start of each new round), the cells were counted.

[4] = tested on: anti-CD19 CAR-expressing T cells; test: Cytokine production of anti-CD19 CAR-expressing T cells incubated with K562.CD19 target cells; assay type: cell-based, human
[5] = tested on: anti-CD19 CAR-expressing T cells; test: Serial stimulation with K562.CD19: surface markers; assay type: cell-based, human
Description: as §1
Expression of select surface markers was assessed on cells at day 4 (i.e., 4 days after the first stimulation) and day 28 (i.e., 4 days after the seventh stimulation). Specifically, harvested cells were analyzed by flow cytometry for CD3, CD4, CD8 and the surrogate marker for CAR expression, and also for the following surface markers: CD69, CD107a, PD-1, CD25, CD62L, CCR7, CD45RO, CD27, and LAG3.

[6] = tested on: anti-CD19 CAR-expressing T cells; test: Cytokine production after anti-idiotypic antibody stimulation; details: anti-idiotypic antibody 0.3-30 μg/ml, 24 hours; Compound 1 100, 1000 nM; lenalidomide 500, 5000 nM
[7] = tested on: anti-CD19 CAR-expressing T cells; test: T cell surface markers of anti-CD19 CAR-expressing T cells incubated with K562.CD19; assay type: cell-based, human
[8] = tested on: anti-CD19 CAR-expressing T cells; test: Serial stimulation with K562.CD19: expansion (cell doublings); assay type: cell-based, human
From the text: as §1

Ikaros = test: Intracellular Ikaros in anti-CD19 CAR-expressing T cells (flow cytometry); assay type: cell-based, human
Description: Cells of the enriched CD4+ and CD8+ compositions were separately activated with anti-CD3/anti-CD28 beads and subjected to lentiviral transduction with a vector encoding an anti-CD19 CAR. […] Transduced populations then were separately incubated in the presence of stimulating reagents for cell expansion.

[9] = tested on: Raji lymphoma tumor cells; test: Raji lymphoma xenograft model, anti-CD19 CAR-expressing cells with Compound 1; assay type: in vivo, mouse; details: Compound 1 0.3 mg/kg i.p. daily, Concurrent and Delayed groups, combined with anti-CD19 CAR-expressing cells, vs CAR-expressing cells alone
Description: The anti-tumor efficacy of CAR-expressing T cells in combination with Compound 1 was assessed by monitoring tumors in a tumor xenograft model. […] T cell compositions were generated from three different donors.
NOD.Cg.Prkdc^scidIL2rg^tm1Wjl/SzJ (NSG) mice were injected intravenously (i.v.) with 0.5×10^6 Raji lymphoma tumor cells (an immortalized human B lymphocyte tumor cell line that expresses CD19) that were transfected with firefly luciferase (Raji-ffluc). Tumor engraftment was allowed to occur for 6 days and verified using bioluminescence imaging. On Day 7, mice either received no treatment, or a single intravenous (i.v.) injection of anti-CD19 CAR-expressing cells at a low dose (0.5×10^6 cells) or a high dose (1.0×10^6 cells). […] Tumor burden was assessed by bioluminescence every 10 days. For bioluminescence imaging, mice received intraperitoneal (i.p.) injections of luciferin substrate (CaliperLife Sciences, Hopkinton, Mass.) resuspended in PBS (15 μg/g body weight). The average radiance (p/s/cm^2/sr) was determined.

## Cc1nc2cccc(N)c2c(=O)n1C1CCC(=O)NC1=O (stereo not drawn) [Compound 1]
K562.CD19 target cells [1]; 2.5:1 E:T ratio, some donors
  cytolytic activity of anti-CD19 CAR-expressing cells: slightly reduced cytolytic activity
K562.CD19 target cells [1]; 5:1 E:T ratio, high concentrations, Donor 2, no effects with Donors 1 and 3
  cytolytic activity of anti-CD19 CAR-expressing T cells: slight but consistent increase in cytolytic activity
K562.CD19 target cells [1]; five days, three donors
  cytolytic function of anti-CD19 CAR-expressing T cells: limited effect on cytolytic function
[2]; CD4+ and CD8+ CAR-expressing T cells, day 4, some donors
  surface markers CD25 and CD69: increase in surface markers CD25 and CD69
[2]; day 4, unchanged or decreased in the other donors
  expression of PD-1: increased in the presence of Compound 1 or lenalidomide in cells generated from at least one donor
K562.CD19 target cells [3]
  cytolytic activity of anti-CD19 CAR-expressing T cells: increase the cytolytic activity
[4]
  cytokine production compared to lenalidomide at equivalent concentrations: greater cytokine production across multiple conditions
[4]; concentration-dependent, E:T 5:1 and 2.5:1, 24 hours, vs vehicle
  cytokine production (IFN-γ, IL-2, TNF-α): increased
[5]; CD4+ and CD8+ CAR-expressing T cells, day 28, three donors
  expression of CD28: decreased in a dose-dependent manner
[5]; both E:T ratios, day 4 and day 28
  PD-1 expression: downregulated to some degree in all donors
[5]; day 4
  CD25 and LAG3 expression: upregulated across all three donors
[5]; day 28
  CCR7 expression: generally decreased at day 28
[6]
  IFN-γ, IL-2 and TNF-α production: increased relative to the vehicle control
[7]; all donors and E:T ratios
  expression of CD27: downregulated in a concentration-dependent manner
  expression of CD45RO: increased
[7]; cells derived from donor 3
  expression of CD69 and LAG3: increased in a concentration-dependent manner
[8]; 10 nM and 100 nM Compound 1, after 24 days
  cell counts of anti-CD19 CAR-expressing T cells: higher than the untreated controls for two out of three donors
[8]; 500 nM Compound 1, rounds after 3-4 rounds of stimulation
  number of doublings of CAR+ cells: lower than the untreated control groups
Ikaros
  reduction in Ikaros expression compared to lenalidomide: greater reduction in Ikaros expression
Ikaros; CD4+ and CD8+ anti-CD19 CAR-expressing T cells
  intracellular Ikaros expression: concentration-dependent decrease in intracellular Ikaros expression
[9]
  tumor burden and survival: reduce tumor burden and improve survival data
